Data taken from the supplement of paper PMC10307832.

Key:
Experiment in all cases: relative viability (nuclei count vs DMSO), 5 days (fraction); higher = more cells survive
[1] = compound: CC1=CC(=NN1)NC2=CC(=NC(=N2)/C=C/C3=CC=CC=C3)N4CCN(CC4)C + O=C(CCCCCCC(=O)Nc1ccccc1)NO [Vorinostat] (partner 1 µM)
Outline: (§1)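 Values are medians from duplicate plates. Each reflects relative viability, defined as the nuclei count of treated wells over that of vehicle wells. Lung cancer cell lines in 1536-well plates were pin-tool dosed one day after seeding with one drug alone or with a fixed anchor-drug dose plus five library-drug doses (not always all listed) in √10 steps, then fixed, stained and imaged at 4× after 5 days.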

[2] = compound: CC1=CC(=NN1)NC2=CC(=NC(=N2)/C=C/C3=CC=CC=C3)N4CCN(CC4)C + COc1cc2c(Oc3ccc(NC(=O)C4(C(=O)Nc5ccc(F)cc5)CC4)cc3F)ccnc2cc1OCCCN1CCOCC1 [Foretinib] (partner 0.25 µM)
Outline: as §1

[3] = compound: CC1=CC(=NN1)NC2=CC(=NC(=N2)/C=C/C3=CC=CC=C3)N4CCN(CC4)C + CC1(C)CCC(c2ccc(Cl)cc2)=C(CN2CCN(c3ccc(C(=O)NS(=O)(=O)c4ccc(N[C@H](CCN5CCOCC5)CSc5ccccc5)c(S(=O)(=O)C(F)(F)F)c4)cc3)CC2)C1 [Navitoclax] (partner 0.5 µM)
Outline: as §1

[4] = compound: CC1=CC(=NN1)NC2=CC(=NC(=N2)/C=C/C3=CC=CC=C3)N4CCN(CC4)C + Nc1nc2[nH]cc(CCc3ccc(C(=O)N[C@@H](CCC(=O)O)C(=O)O)cc3)c2c(=O)[nH]1 [Pemetrexed] (partner 0.2 µM)
Outline: as §1

Cell Line	relative viability ([1]; first compound 0.08 µM)	relative viability ([1]; first compound 0.253 µM)	relative viability ([1]; first compound 0.8 µM)	relative viability ([1]; first compound 2.53 µM)	relative viability ([1]; first compound 8 µM)	relative viability ([2]; first compound 0.08 µM)	relative viability ([2]; first compound 0.253 µM)	relative viability ([2]; first compound 0.8 µM)	relative viability ([2]; first compound 2.53 µM)	relative viability ([2]; first compound 8 µM)	relative viability ([3]; first compound 0.08 µM)	relative viability ([3]; first compound 0.253 µM)	relative viability ([3]; first compound 0.8 µM)	relative viability ([3]; first compound 2.53 µM)	relative viability ([3]; first compound 8 µM)	relative viability ([4]; first compound 0.08 µM)	relative viability ([4]; first compound 0.253 µM)	relative viability ([4]; first compound 0.8 µM)	relative viability ([4]; first compound 2.53 µM)	relative viability ([4]; first compound 8 µM)
NCI-H23	0.485	0.756	0.457	0.141	0.0948	0.699	0.987	0.712	0.256	0.147	0.79	0.909	0.867	0.364	0.15	0.508	0.768	0.542	0.215	0.118
UMC-11	0.371	0.363	0.201	0.117	0.0745	1.06	0.908	0.466	0.17	0.13	0.317	0.312	0.177	0.116	0.0909	0.74	0.705	0.481	0.148	0.122
NCI-H1975	0.663	0.733	0.536	0.187	0.128	0.928	1.02	0.795	0.326	0.128	0.977	1.12	1.08	0.616	0.134	0.281	0.281	0.286	0.187	0.137
COR-L 105	0.818	0.762	0.753	0.47	0.262	0.841	1.47	1.02	0.334	0.215	0.739	0.976	0.727	0.4	0.206	1.23	1.13	0.945	0.351	0.29
LK-2	0.254	0.155	0.283	0.223	0.126	1.35	1.02	1	0.382	0.153	0.821	1.03	0.711	0.247	0.133	0.199	0.288	0.306	0.217	0.0825
EKVX	0.702	0.82	0.794	0.571	0.289	0.761	0.786	1.14	0.504	0.213	0.946	1.24	1.03	0.755	0.131	0.366	0.5	0.674	0.361	0.197
NCI-H2009	0.751	0.699	0.712	0.218	0.121	1.22	1.22	1.23	0.493	0.217	1.19	1.09	1.13	1.12	0.212	1.09	1.03	0.982	0.909	0.313
NCI-H838	0.726	0.729	0.394	0.146	0.117	0.99	1.14	0.965	0.798	0.131	1.22	1.22	0.866	0.305	0.134	0.235	0.25	0.213	0.166	0.111
NCI-H2085	0.826	0.95	0.822	0.322	0.366	0.972	1.04	0.842	0.552	0.227	1.24	1.19	0.994	0.489	0.315	0.994	0.982	0.952	0.325	0.258
